{"source": "PubChem BioAssay AID493130", "about": "(Broad Institute, 2011)", "note": "Inconclusive results are not listed. Calls of active or inactive are those of the source.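 How the source made its calls: active means signal-lowering compounds whose fitted half-maximal concentration is at most ten times their highest tested dose; inconclusive means flat fit between -30 and -70%, or poor fit; inactive means flat within 30%, signal rising, or potency beyond limit.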", "data": [{"biological_target": "POS-1 (Caenorhabditis elegans) binding to mex-3 RNA", "experiment": "C. elegans POS-1 RNA interaction disruptors – biochemical, fluorescence polarization, cherry-picked samples, set 2, counter-screen for MEX-5 RNA-binding inhibitor project, dose response (AID 493130);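 further: POS-1 as maltose binding protein fusion made in E. coli with FITC RNA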", "conditions": "POS-1/mex-3 RNA fluorescence polarization, 1 h", "values": [{"smiles": "Cc1ccc(N2C(=O)NC(=O)/C(=C\\c3ccc([N+](=O)[O-])o3)C2=O)cc1", "AC50": "7.36 µM"}, {"smiles": "Nc1c(C(=O)c2cccs2)sc2nsc(SCCN3CCCCC3)c12", "AC50": "6.39 µM"}, {"smiles": "CCCCCCc1cc2cc(C(=O)NC)c(=N)oc2cc1O", "AC50": "1.62 µM"}, {"smiles": "CN1CC=C2C(C#N)=C(N)C(C#N)(C#N)C(Cc3ccccc3)C2C1", "note": "(stereo not drawn)", "AC50": "6.58 µM"}, {"smiles": "CN(CCC#N)C(=O)COC(=O)c1c2c(nc3ccccc13)/C(=C/c1ccco1)CC2", "AC50": "> 10 µM (inactive)"}, {"smiles": "Cc1cc(C)c2c(c1)NC(C(=O)O)C1CC=CC21", "note": "(stereo not drawn)", "AC50": "6.96 µM"}, {"smiles": "CCCC1C2CN(C(C)C)CC=C2C(C#N)=C(N)C1(C#N)C#N", "note": "(stereo not drawn)", "AC50": "1.81 µM"}, {"smiles": "O=C(N/N=C/c1c(O)n(Cc2ccccc2)c(=O)[nH]c1=O)c1ccccc1O", "AC50": "4.84 µM"}, {"smiles": "Nc1nnc(CC(=O)N/N=C/c2cc([N+](=O)[O-])cc(Br)c2O)s1", "AC50": "6.03 µM"}, {"smiles": "Cc1cc(=O)n2[nH]c(=O)c(N=Nc3ccccc3)c2[nH]1", "AC50": "0.306 µM"}]}, {"biological_target": "POS-1 (Caenorhabditis elegans) binding to mex-3 RNA", "experiment": "C. elegans POS-1 RNA interaction disruptors – biochemical, fluorescence polarization, cherry-picked samples, set 2, counter-screen for MEX-5 RNA-binding inhibitor project, dose response (AID 493130)", "conditions": "POS-1/mex-3 RNA fluorescence polarization, 1 h; at 10 µM (top of the series)", "values": [{"smiles": "O=c1oc2cc([N+](=O)[O-])ccc2nc1/C=C(\\O)c1cccc(Br)c1", "activity change, negative = inhibition": "inactive"}, {"smiles": "CCOc1ccccc1C1NC(=O)NC(C)=C1C(=O)OCc1ccccc1", "note": "(stereo not drawn)", "activity change, negative = inhibition": "inactive"}, {"smiles": "COc1cc2c(cc1OC)[C@@H](Cc1ccc(OCCC#N)cc1)N(C)CC2", "activity change, negative = inhibition": "inactive"}, {"smiles": "Cc1cc(/C=C2\\C(=O)NC(=O)N(c3cccc(Br)c3)C2=O)c(C)n1C", "activity change, negative = inhibition": "inactive"}, {"smiles": "O=C1c2cccc3c(Cl)ccc(c23)C(=O)N1O", "activity change, negative = inhibition": "inactive"}, {"smiles": "CCCCCC(=O)N(Cc1ccccc1)c1c(N)n(CCOC)c(=O)[nH]c1=O", "activity change, negative = inhibition": "inactive"}, {"smiles": "O=C(O)c1cccc(NC(=S)N/N=C/c2c[nH]c3ccccc23)c1", "activity change, negative = inhibition": "inactive"}, {"smiles": "CC(C)c1ccc(N2C(=O)/C(=C/N(C)C)SC2=S)cc1", "activity change, negative = inhibition": "inactive"}, {"smiles": "Cc1nnc(N2C(=O)C(O)=C(C(=O)c3ccco3)C2c2ccc(C(C)C)cc2)s1", "note": "(stereo not drawn)", "activity change, negative = inhibition": "inactive"}, {"smiles": "Cc1ccc(N2C(=O)c3ccc(C(=O)O)cc3C2=O)cc1C", "activity change, negative = inhibition": "inactive"}, {"smiles": "CCOC(=O)[C@]1(C#N)[C@@H]2C=CC(C(N)=O)=CN2[C@@H](C(N)=O)[C@@H]1c1ccc(F)cc1", "activity change, negative = inhibition": "inactive"}, {"smiles": "O=C(O)c1cc(Oc2ccc(C(F)(F)F)cc2Cl)ccc1[N+](=O)[O-]", "activity change, negative = inhibition": "inactive"}, {"smiles": "O=C1OC(C(=O)O)Cc2ccccc21", "note": "(stereo not drawn)", "activity change, negative = inhibition": "inactive"}, {"smiles": "COc1ccc(/C=N/NC(=S)Nc2cccc(C(=O)O)c2)cc1", "activity change, negative = inhibition": "inactive"}, {"smiles": "Cn1c(CNC(=O)c2ccc(F)cc2)cc2ccccc21", "activity change, negative = inhibition": "inactive"}, {"smiles": "Cc1cc(/C=C2\\SC(=S)N(Cc3ccco3)C2=O)c(C)n1-c1ccccc1", "activity change, negative = inhibition": "inactive"}, {"smiles": "Cc1cc([N+](=O)[O-])nn1CC(=O)NNC(=S)Nc1ccc(F)cc1", "activity change, negative = inhibition": "inactive"}, {"smiles": "COc1ccc(/C=C2\\CCCc3c2nc2ccc(C)cc2c3C(=O)O)cc1O", "activity change, negative = inhibition": "inactive"}, {"smiles": "Nc1c(C(=O)Nc2ccccc2)sc2nc3c(c(-c4ccco4)c12)CCC3", "activity change, negative = inhibition": "inactive"}, {"smiles": "CCN(CC)c1ccc(C(=O)N/N=C(\\C)c2cccnc2)cc1", "activity change, negative = inhibition": "inactive"}, {"smiles": "CCn1c(C)c(C(C)=O)c(N2CCN(c3ccccc3)CC2)nc1=S", "activity change, negative = inhibition": "inactive"}, {"smiles": "Cc1cccc(NC(=O)c2sc3nc4c(c(-c5ccco5)c3c2N)CCC4)c1", "activity change, negative = inhibition": "inactive"}, {"smiles": "O=[As](O)(O)c1ccc(N=Nc2ccc(O)cc2)cc1", "activity change, negative = inhibition": "inactive"}, {"smiles": "FC(F)(F)c1nc2cc3nc4ccccc4[nH]c3cc2n1", "activity change, negative = inhibition": "inactive"}, {"smiles": "CC(C)(C)N(CC#CCC(O)(c1ccccc1)c1ccccc1)CCO", "activity change, negative = inhibition": "inactive"}, {"smiles": "Cc1cc(C)c2cc3c(N)c(C(=O)N4CCc5ccccc5C4)sc3nc2c1", "activity change, negative = inhibition": "inactive"}, {"smiles": "COCCNc1nnc(SCC(=O)NNC(=O)c2ccc([N+](=O)[O-])cc2)s1", "activity change, negative = inhibition": "inactive"}, {"smiles": "NS(=O)(=O)c1ccc(N=Nc2ccc(=O)[nH]c2O)cc1", "activity change, negative = inhibition": "inactive"}, {"smiles": "CCCOc1ccc(C2=CSC3=NCCN23)cc1[N+](=O)[O-]", "activity change, negative = inhibition": "inactive"}, {"smiles": "COc1cccc(NC(=O)CSc2nc3ccccc3nc2N2CCOCC2)c1", "activity change, negative = inhibition": "inactive"}, {"smiles": "Cc1nn(C(C)C(=O)NNC(=S)Nc2ccc(Cl)cc2)c(C)c1[N+](=O)[O-]", "note": "(stereo not drawn)", "activity change, negative = inhibition": "inactive"}, {"smiles": "CN1C(=O)C(=Cc2sc(=O)n(-c3ccccc3)c2N(C)C)C(=O)N(C)C1=O", "activity change, negative = inhibition": "inactive"}, {"smiles": "Cc1c(Br)c(=O)oc2c(Br)c(O)c(O)cc12", "activity change, negative = inhibition": "inactive"}, {"smiles": "Cc1cccnc1Nc1nc(-c2ccc(O)cc2O)cs1", "activity change, negative = inhibition": "inactive"}, {"smiles": "O=C(O)CCCN1C(=O)/C(=C\\c2ccc(-c3nc4ccccc4s3)o2)SC1=S", "activity change, negative = inhibition": "inactive"}, {"smiles": "Cc1nc2c3ccccc3nc(NNC(=O)CCC(=O)NC(C)C)n2n1", "activity change, negative = inhibition": "inactive"}, {"smiles": "O=S(=O)(O)c1cc(O)c2c(O)c(N=Nc3cc(Cl)ccc3O)c(S(=O)(=O)O)cc2c1", "activity change, negative = inhibition": "inactive"}, {"smiles": "CCOC(=O)c1ccc(NC(=O)C(=O)NCc2ccc(/C=C(/C#N)C(=O)NCCOC)o2)cc1", "activity change, negative = inhibition": "inactive"}, {"smiles": "O=c1[nH]c(=S)n(-c2ccccc2F)c(O)c1C=Nc1ccc(N2CCOCC2)cc1", "activity change, negative = inhibition": "inactive"}, {"smiles": "O=c1[nH]nc(CNc2ccc(Cl)cc2Cl)c2ccccc12", "activity change, negative = inhibition": "inactive"}, {"smiles": "COc1ccccc1N=Nc1c(C)[nH][nH]c1=O", "activity change, negative = inhibition": "inactive"}, {"smiles": "CCOc1cc(/C=N/n2c(C)nc3ccccc3c2=O)ccc1O", "activity change, negative = inhibition": "inactive"}, {"smiles": "O=c1[nH]nc(CNc2ccc(OC(F)(F)F)cc2)c2ccccc12", "activity change, negative = inhibition": "inactive"}, {"smiles": "CN1CCc2nc3sc(C(=O)NC(C)(C)C)c(N)c3cc2C1", "activity change, negative = inhibition": "inactive"}, {"smiles": "O=C(N/N=C/c1ccncc1)c1cc([N+](=O)[O-])cc([N+](=O)[O-])c1O", "activity change, negative = inhibition": "inactive"}, {"smiles": "O=C(O)CCCC(=O)NNc1nc(-c2ccccc2)c2cc(Cl)ccc2n1", "activity change, negative = inhibition": "inactive"}, {"smiles": "COC(=O)CCC(=O)OC1(C)C(=O)C2=CN(Cc3ccccc3)C(c3ccc(OC)cc3)=CC2=C(Br)C1=O", "note": "(stereo not drawn)", "activity change, negative = inhibition": "inactive"}, {"smiles": "COC(=O)c1ccc(N2NC(=O)/C(=C/c3ccc(-c4ccc(Cl)c(C(=O)O)c4)o3)C2=O)cc1", "activity change, negative = inhibition": "inactive"}, {"smiles": "O=C(O)c1ccc2c(c1)ncn2C1CCCCC1", "activity change, negative = inhibition": "inactive"}, {"smiles": "CC(C)C(=O)OCC(=O)Nc1ccc2c(c1)CCC2", "activity change, negative = inhibition": "inactive"}, {"smiles": "COC1=C(Nc2ccc(O)cc2)C(=O)c2ccccc2C1=O", "activity change, negative = inhibition": "inactive"}, {"smiles": "COc1cc2c(cc1OC)-c1c(OC)c(OC)cc3c1C(C2)N(C)CC3", "note": "(stereo not drawn)", "activity change, negative = inhibition": "inactive"}, {"smiles": "COc1ccc(N/C=C/C(=O)c2ccc3c(c2)OCO3)cc1OC", "activity change, negative = inhibition": "inactive"}, {"smiles": "c1cncc(C2CC(c3cccs3)n3ncnc3N2)c1", "note": "(stereo not drawn)", "activity change, negative = inhibition": "inactive"}, {"smiles": "CC(C)(C)CC(C)(C)NCC(O)COc1ccc2c(c1)CCC2", "note": "(stereo not drawn)", "activity change, negative = inhibition": "inactive"}, {"smiles": "CCC(COC(C)=O)Nc1nc2c([nH]1)c(=O)n(C)c(=O)n2C", "note": "(stereo not drawn)", "activity change, negative = inhibition": "inactive"}, {"smiles": "CN1C(=O)/C(=C/c2ccco2)SC1=Nc1cccc(C(=O)O)c1", "activity change, negative = inhibition": "inactive"}, {"smiles": "CC(=O)c1c2c3c(c(Br)ccc3n(C)c1=O)C(=O)c1ccccc1-2", "activity change, negative = inhibition": "inactive"}]}]}
